Test results published in patent publication US20120253007A1 (The Government of the United States of America, as …, priority 2011, published 2012).

Test system: leukocyte migration (chemotaxis) stimulated by f-MLP
Assay: leukocyte chemotaxis assay: leukocyte migration stimulated by f-MLP
Details: concentration not given

## cyclosporin H
  activity in studies involving leukocyte chemotaxis induced by f-MLP (result in words): functionally active
Listed as purified cyclosporin H
  activity in studies involving leukocyte chemotaxis induced by f-MLP (result in words): active
